Source: PMC10673624 (Current research in chemical biology, 2023)

Experiments:
[1] = target: T1, CLK2 (Homo sapiens, UniProt P49760); test: Luceome KinaseSeeker binding; conditions: read-out: KinaseSeeker activity remaining
[2] = target: T2, CLK4 (Homo sapiens, UniProt Q9HAZ1); test: NanoBRET in-cell target engagement; format: cell-based
[3] = target: T3, CLK1 (Homo sapiens, UniProt P49759); test: Luceome KinaseSeeker binding; conditions: read-out: KinaseSeeker activity remaining
[4] = tested on: 403 wildtype (WT) human as well as several mutant and nonhuman kinases; format: binding; conditions: no kinase bound below this PoC
[5] = tested on: U118-MG; test: Crystal violet cell proliferation; format: cell-based; conditions: denoted concentrations, 7 days (Fig. 6a)
[6] = target: T1, CLK2; test: Eurofins enzymatic assay; format: biochemical
[7] = target: T3, CLK1; test: NanoBRET in-cell target engagement; format: cell-based
[8] = target: CLK3 (Homo sapiens, UniProt P49761); test: Eurofins enzymatic assay; format: biochemical
[9] = tested on: MDA-MB-435; test: Crystal violet cell proliferation; format: cell-based; conditions: MDA-MB-435, denoted concentrations, 7 days (Fig. 6a)
[10] = tested on: CLK2 or pSR distribution, BT-20; test: Immunofluorescence of pSR and CLK2 localization; format: cell-based
[11] = target: CLK4; test: Luceome KinaseSeeker binding; conditions: CLK4, 1 μM
[12] = target: T2, CLK4; test: Eurofins enzymatic assay; format: biochemical
[13] = target: T1, CLK2; test: NanoBRET in-cell target engagement; format: cell-based
[14] = target: T3, CLK1; test: Eurofins enzymatic assay; format: biochemical
[15] = tested on: CLK; conditions: ref SGC chemical probe website (thesgc.org/chemical-probes/MU1210, /T3-CLK); cited from earlier work
[16] = tested on: pSR and CLK2 localization, U118-MG and MDA-MB-435 cells; test: Immunofluorescence of pSR and CLK2 localization; format: cell-based; conditions: 500 nM, over the course of 60 min
[17] = target: T4, HIPK2 (Homo sapiens, UniProt Q9H2X6); test: NanoBRET in-cell target engagement; format: cell-based
T4 sequence (Q9H2X6 whole entry): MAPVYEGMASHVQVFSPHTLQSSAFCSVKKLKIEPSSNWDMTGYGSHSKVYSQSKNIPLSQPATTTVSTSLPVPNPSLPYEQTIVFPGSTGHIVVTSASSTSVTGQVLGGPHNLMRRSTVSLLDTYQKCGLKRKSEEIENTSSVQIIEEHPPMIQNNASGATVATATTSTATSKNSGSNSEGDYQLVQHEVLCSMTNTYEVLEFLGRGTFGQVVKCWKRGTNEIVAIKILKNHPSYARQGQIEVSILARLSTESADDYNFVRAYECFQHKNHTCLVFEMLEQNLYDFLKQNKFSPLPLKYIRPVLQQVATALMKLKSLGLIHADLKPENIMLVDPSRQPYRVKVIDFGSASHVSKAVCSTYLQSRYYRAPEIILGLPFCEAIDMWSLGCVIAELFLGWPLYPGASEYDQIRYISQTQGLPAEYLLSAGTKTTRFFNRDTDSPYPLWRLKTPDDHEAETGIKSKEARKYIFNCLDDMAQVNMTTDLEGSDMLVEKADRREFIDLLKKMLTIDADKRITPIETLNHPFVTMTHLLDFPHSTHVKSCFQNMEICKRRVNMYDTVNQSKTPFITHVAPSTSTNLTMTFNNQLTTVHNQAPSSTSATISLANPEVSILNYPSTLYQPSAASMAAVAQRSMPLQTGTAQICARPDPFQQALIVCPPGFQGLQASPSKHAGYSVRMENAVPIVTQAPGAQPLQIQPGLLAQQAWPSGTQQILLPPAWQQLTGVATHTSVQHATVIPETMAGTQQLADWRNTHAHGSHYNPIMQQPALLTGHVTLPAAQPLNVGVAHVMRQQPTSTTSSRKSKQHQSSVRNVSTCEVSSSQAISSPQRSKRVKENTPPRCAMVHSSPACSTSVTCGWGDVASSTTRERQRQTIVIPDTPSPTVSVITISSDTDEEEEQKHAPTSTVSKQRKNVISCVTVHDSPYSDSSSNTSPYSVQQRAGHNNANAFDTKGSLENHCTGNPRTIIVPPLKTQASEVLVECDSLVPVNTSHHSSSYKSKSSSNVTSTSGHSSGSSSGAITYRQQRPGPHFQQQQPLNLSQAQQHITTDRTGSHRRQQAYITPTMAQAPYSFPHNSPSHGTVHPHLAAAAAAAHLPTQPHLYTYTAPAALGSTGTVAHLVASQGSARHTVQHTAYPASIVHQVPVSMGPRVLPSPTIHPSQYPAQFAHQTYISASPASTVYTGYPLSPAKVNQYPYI

[18] = tested on: SR phosphorylation (pSR), U118-MG cells; test: Western blot of phosphorylated SR proteins; format: cell-based
[19] = target: ERK8 (MAPK15) (Homo sapiens, UniProt Q8TD08); test: KINOMEscan scanMAX binding
Sequence of ERK8 (MAPK15) (Q8TD08 whole entry): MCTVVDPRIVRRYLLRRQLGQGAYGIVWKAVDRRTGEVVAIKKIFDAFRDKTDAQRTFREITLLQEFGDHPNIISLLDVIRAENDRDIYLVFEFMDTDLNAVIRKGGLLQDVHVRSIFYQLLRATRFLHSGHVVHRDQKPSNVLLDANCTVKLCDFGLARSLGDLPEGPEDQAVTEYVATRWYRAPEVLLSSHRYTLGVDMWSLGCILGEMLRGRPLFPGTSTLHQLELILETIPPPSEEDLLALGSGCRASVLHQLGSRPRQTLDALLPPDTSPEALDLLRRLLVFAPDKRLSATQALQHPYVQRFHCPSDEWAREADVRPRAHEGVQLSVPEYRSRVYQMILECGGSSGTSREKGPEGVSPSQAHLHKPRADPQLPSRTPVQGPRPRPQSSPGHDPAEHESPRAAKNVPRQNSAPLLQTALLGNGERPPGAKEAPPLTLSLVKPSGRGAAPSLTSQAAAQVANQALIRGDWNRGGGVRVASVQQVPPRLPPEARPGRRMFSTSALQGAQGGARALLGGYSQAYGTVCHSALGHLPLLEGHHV

[20] = target: T5, HIPK1 (Homo sapiens, UniProt Q86Z02); test: NanoBRET in-cell target engagement; format: cell-based
T5 sequence (Q86Z02 whole entry): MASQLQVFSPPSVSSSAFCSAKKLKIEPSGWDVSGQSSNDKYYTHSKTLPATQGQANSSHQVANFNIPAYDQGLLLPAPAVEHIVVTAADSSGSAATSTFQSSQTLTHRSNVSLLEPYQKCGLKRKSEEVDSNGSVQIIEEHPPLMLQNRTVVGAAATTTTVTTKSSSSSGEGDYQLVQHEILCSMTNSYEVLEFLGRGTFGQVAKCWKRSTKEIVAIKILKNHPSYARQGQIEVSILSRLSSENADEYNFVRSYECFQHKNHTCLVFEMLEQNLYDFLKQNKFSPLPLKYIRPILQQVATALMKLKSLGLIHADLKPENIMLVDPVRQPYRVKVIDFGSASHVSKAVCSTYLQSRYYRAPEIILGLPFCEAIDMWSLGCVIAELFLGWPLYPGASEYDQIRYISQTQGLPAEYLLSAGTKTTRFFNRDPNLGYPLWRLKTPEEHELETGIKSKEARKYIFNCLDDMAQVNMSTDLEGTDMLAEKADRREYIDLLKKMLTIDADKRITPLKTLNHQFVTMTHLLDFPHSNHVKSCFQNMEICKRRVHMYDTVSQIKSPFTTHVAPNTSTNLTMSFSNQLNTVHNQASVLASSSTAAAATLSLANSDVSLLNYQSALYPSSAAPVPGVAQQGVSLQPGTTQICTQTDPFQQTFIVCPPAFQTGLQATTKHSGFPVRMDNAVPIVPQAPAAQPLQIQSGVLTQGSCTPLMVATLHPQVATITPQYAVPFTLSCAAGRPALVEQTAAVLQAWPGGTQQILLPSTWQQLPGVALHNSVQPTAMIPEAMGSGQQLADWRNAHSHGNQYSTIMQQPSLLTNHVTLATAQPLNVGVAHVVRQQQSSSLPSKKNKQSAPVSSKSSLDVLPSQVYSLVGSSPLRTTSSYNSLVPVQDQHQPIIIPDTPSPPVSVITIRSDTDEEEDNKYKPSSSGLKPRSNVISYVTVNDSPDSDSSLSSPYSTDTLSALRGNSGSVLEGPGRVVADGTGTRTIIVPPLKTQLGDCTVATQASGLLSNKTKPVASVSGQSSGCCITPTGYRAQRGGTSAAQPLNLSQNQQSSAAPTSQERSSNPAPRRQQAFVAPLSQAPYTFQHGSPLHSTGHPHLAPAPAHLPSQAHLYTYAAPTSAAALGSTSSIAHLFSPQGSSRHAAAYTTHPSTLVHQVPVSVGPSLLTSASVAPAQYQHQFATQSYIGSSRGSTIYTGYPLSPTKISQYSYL

[21] = target: T6, STK16 (Homo sapiens, UniProt O75716); test: Eurofins enzymatic assay; format: biochemical
T6 sequence (O75716 whole entry): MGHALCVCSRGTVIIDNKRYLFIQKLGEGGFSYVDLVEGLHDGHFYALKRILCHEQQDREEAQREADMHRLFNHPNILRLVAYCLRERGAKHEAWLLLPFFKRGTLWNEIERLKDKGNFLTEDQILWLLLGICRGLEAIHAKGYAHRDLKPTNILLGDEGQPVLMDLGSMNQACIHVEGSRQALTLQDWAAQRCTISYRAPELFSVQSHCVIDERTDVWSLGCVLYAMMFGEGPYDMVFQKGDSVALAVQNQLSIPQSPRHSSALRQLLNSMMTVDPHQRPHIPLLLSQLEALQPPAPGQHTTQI

[22] = target: T6, STK16; test: NanoBRET in-cell target engagement; format: cell-based
[23] = tested on: 100 different cancer cell lines; test: ProQinase CL100 cancer cell line panel; format: cell-based; conditions: of 100 cell lines tested, CellTiter-Glo
[24] = target: T4, HIPK2; test: Eurofins enzymatic assay; format: biochemical
[25] = target: T5, HIPK1; test: Eurofins enzymatic assay; format: biochemical
[26] = tested on: BT-20; test: Crystal violet cell proliferation; format: cell-based; conditions: BT-20, denoted concentrations, 7 days (Fig. 6a)

T3 sequence (P49759 whole entry): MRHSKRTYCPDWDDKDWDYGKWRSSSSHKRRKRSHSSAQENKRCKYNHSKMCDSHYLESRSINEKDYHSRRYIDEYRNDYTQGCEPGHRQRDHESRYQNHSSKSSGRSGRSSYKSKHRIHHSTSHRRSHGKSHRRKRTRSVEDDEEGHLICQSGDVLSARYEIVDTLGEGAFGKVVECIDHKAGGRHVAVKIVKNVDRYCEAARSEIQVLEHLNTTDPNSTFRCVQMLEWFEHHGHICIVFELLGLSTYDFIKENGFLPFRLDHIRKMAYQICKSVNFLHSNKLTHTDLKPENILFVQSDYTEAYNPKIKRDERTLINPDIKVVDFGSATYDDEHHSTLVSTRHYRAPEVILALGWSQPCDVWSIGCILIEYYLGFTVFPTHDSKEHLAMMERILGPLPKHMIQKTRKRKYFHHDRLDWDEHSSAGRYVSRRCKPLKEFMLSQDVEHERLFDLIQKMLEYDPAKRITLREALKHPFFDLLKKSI
T1 sequence (P49760 whole entry): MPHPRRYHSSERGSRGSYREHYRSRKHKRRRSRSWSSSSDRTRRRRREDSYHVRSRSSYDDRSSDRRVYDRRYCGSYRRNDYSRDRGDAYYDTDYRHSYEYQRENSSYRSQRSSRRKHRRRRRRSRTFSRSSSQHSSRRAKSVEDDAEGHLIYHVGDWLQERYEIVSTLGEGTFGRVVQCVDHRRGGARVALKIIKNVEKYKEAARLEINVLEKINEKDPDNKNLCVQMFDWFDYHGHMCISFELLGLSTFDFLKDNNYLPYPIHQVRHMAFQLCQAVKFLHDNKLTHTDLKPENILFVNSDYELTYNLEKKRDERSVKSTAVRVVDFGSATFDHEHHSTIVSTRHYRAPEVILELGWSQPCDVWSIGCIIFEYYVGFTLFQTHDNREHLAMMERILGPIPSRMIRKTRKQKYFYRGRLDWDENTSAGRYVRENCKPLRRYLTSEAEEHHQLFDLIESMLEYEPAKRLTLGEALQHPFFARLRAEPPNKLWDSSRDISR
T2 sequence (Q9HAZ1 whole entry): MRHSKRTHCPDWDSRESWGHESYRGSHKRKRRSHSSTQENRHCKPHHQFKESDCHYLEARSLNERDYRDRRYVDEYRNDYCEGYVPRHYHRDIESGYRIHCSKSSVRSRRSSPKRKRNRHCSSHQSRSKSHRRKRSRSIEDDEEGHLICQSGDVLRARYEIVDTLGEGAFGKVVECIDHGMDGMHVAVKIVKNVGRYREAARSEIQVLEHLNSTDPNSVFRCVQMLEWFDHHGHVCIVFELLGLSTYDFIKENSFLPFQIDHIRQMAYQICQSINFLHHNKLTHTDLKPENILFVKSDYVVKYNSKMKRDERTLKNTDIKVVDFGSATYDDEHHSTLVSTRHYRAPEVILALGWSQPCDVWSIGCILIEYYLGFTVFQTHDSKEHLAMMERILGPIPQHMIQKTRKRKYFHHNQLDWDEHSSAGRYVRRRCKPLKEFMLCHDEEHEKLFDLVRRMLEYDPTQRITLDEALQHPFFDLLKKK

CCOc1ccc2c(-c3cc(C)nc(Nc4cc(OC)cc(C(F)(F)F)c4)n3)cnn2n1 [SGC-CLK-1N, 4-(6-ethoxypyrazolo [1,5-b]pyridazin-3-yl)-N-(3-methoxy-5-(trifluoromethyl)phenyl)-6-methylpyrimidin-2-amine]
remaining activity at 1 µM [1]: 100% | NanoBRET activity (in words) [2]: inactive | remaining activity at 1 µM [3]: 100% | PoC of any kinase in the KINOMEscan panel [4]: ≥ 45 | Effect on cell growth (crystal violet) [5]: little effect | Enzymatic inhibition (in words) [6]: no inhibition | NanoBRET activity (in words) ([7]; CLK1): inactive | Enzymatic inhibition (in words) [8]: no inhibition | Effect on cell growth (crystal violet) [9]: little effect | Effect on CLK2 or pSR distribution [10]: did not observe a difference in CLK2 or pSR distribution | KinaseSeeker activity remaining [11]: 100% | Enzymatic inhibition (in words) [12]: no inhibition | NanoBRET activity (in words) [13]: inactive | Enzymatic inhibition (in words) [14]: no inhibition

Cn1cc(-c2ccc3occ(-c4cccc(-c5ccncc5)c4)c3n2)cn1 [Compound 1, reference compound]
Activity in the CLK nanoBRET assays [15]: active | Effect on pSR and CLK2 localization [16]: did not show any effect on pSR or CLK2 localization

COc1cc(Nc2nccc(-c3cnn4nc(OC)ccc34)n2)cc(C(F)(F)F)c1 [SGC-CLK-1, N-(3-methoxy-5-(trifluoromethyl)phenyl)-4-(6-methoxypyrazolo[1,5-b]pyridazin-3-yl) pyrimidin-2-amine]
IC50 [17]: > 10000 nM | Change in SR phosphorylation (pSR) ([18]; 1 μM, highest treatment condition): did not detect significant pSR changes | Change in SR phosphorylation (pSR) ([18]; 5 μM, 30 min post treatment, U118-MG): decrease in SR phosphorylation | % Control (1 μM) ([19]; ERK8 (MAPK15), 1 μM): 21% | remaining binding at 1 µM ([19]; read-out: % Control (1 μM), ERK8 (MAPK15), 1 μM): < 35% | IC50 [20]: > 10000 nM | IC50 [21]: 49 nM | Effect on cell growth (crystal violet) [5]: dose-dependent decrease in the growth | NanoBRET binding (in words) [22]: only partial inhibition | IC50 ([7]; Cellular IC50 (NanoBRET), CLK1, HEK293, Tracer K5): 154 ± 50 nM | Cell lines with IC50 for inhibiting proliferation <250 nM [23]: 27/100 | IC50 [24]: 42 nM | Effect on cell growth (crystal violet) [9]: dose-dependent decrease in the growth | Effect on CLK2 or pSR distribution [10]: did not observe a difference in CLK2 or pSR distribution | Effect on pSR and CLK2 localization [16]: significant changes in the cellular distribution of both pSRs and CLK2 | IC50 [25]: 50 nM | Effect on cell growth (crystal violet) [26]: no growth change
